Measured values from US11285208B2, “Therapeutic agents for pancreatic cancer” (NATIONAL CANCER CENTER, priority 2010, dated 2022).
Structures can show the parent of a compound that is named as a salt.

Legend:
[1] = system: pancreatic cancer; conditions: first-line therapy, foreign phase III clinical trials; cited from earlier work
[2] = system: progressive/metastatic pancreatic cancer; assay: Clinical performance of gemcitabine hydrochloride monotherapy in progressive/metastatic pancreatic cancer patients; assay type: in vivo, human
Description: Thus, the tumor reducing effect and ascites eliminating effect observed in one case of combination therapy were not observed with monotherapy.

In the case of Nc1ccn([C@@H]2O[C@H](CO)[C@@H](O)C2(F)F)c(=O)n1 [gemcitabine hydrochloride], the “Efficacy in symptom palliation” value [1] is given as 23.8%, the Median survival time [1] is given as 5.7 months and the One-year survival rate [1] is given as 18%. The “Average change in tumor size (increase)” value ([2]; 3 months after the start of monotherapy, 25 analyzable cases, 95% confidence interval 4.6-67.4%) was 36.0% and the Ascites elimination ([2]; during the monotherapy of 3 months, 29 analyzable cases) was “ascites was not eliminated”.
